In article PMC10893631, “Receptor-based pharmacophore modeling, molecular docking, synthesis and biological evaluation of novel VEGFR-2, FGFR-1, and BRAF multi-kinase inhibitors” (BMC Chemistry, 2024):

Tests used:
Assay in all cases: NCI SRB growth inhibition (single dose 10 µM / five-dose)
Type in all cases: cell-based, human
BT-549 = details: Homo sapiens
How it was run: (§1)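 Seeding varied with cell doubling time (5000–40,000 cells/well). Dilutions were 10-fold or ½ log, five levels in total. Sulforhodamine B staining (0.4% w/v, 10 min, room temperature) of TCA-fixed cells measured growth.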

EKVX = details: Homo sapiens
How it was run: as §1

NCI-H23 = details: Homo sapiens
How it was run: as §1

NCI-H522 = details: Homo sapiens
How it was run: as §1

SF-268 = details: Homo sapiens
How it was run: as §1

MDA-MB-468 = details: Homo sapiens
How it was run: as §1

786–0 = details: Homo sapiens
How it was run: as §1

MDA-MB-231/ATCC = details: Homo sapiens
How it was run: as §1

UACC-257 = details: Homo sapiens
How it was run: as §1

HT29 = details: Homo sapiens, HT-29
How it was run: as §1

NCI-H226 = details: Homo sapiens
How it was run: as §1

KM12 = details: Homo sapiens
How it was run: as §1

COLO 205 = details: Homo sapiens
How it was run: as §1

SK-MEL-2 = details: Homo sapiens
How it was run: as §1

SN12C = details: Homo sapiens; SN12C, Renal cancer; five-dose
How it was run: as §1

RPMI-8226 = details: Homo sapiens
How it was run: as §1

TK-10 = details: Homo sapiens
How it was run: as §1

NCI/ADR-RES = details: Homo sapiens; NCI/ADR-RES (Ovarian cancer), 10 µM; read-out: GI%
How it was run: as §1

SK-MEL-5 = details: Homo sapiens
How it was run: as §1

SR = details: Homo sapiens
How it was run: as §1

HOP-62 = details: Homo sapiens
How it was run: as §1

K-562 = details: Homo sapiens, K562
How it was run: as §1

IGROV1 = details: Homo sapiens, IGROV-1
How it was run: as §1

ACHN = details: Homo sapiens
How it was run: as §1

SNB-75 = details: Homo sapiens
How it was run: as §1

SNB-19 = details: Homo sapiens
How it was run: as §1

Q: How did the inhibition at 10 µM (BT-549; BT-549 (Breast cancer), 10 µM, read-out: GI%) turn out when COc1cc(C=NNC(=O)c2ccc3[nH]c(-c4ccc(Cl)cc4)nc3c2)cc(OC)c1OC [8u, 2-(4-Chlorophenyl)-N'-(3,4,5-trimethoxybenzylidene)-1H-benzo[d]imidazole-5-carbohydrazide] was run?
A: > 100%

Q: What about the GI50 (BT-549; BT-549, Breast cancer, five-dose) of the same molecule?
A: 2.69 µM

Q: And the inhibition at 10 µM (EKVX; EKVX (Non-small cell lung cancer), 10 µM, read-out: GI%)?
A: 90.8%

Q: And the GI50 (EKVX; EKVX, Non-small cell lung cancer, five-dose)?
A: 14.8 µM

Q: And the inhibition at 10 µM (NCI-H23; NCI-H23 (Non-small cell lung cancer), 10 µM, read-out: GI%)?
A: > 100%

Q: What about the GI50 (NCI-H23; NCI-H23, Non-small cell lung cancer, five-dose) of the same molecule?
A: 4.72 µM

Q: What about the inhibition at 10 µM (NCI-H522; NCI-H522 (Non-small cell lung cancer), 10 µM, read-out: GI%) of the same molecule?
A: > 100%

Q: What about the GI50 (NCI-H522; NCI-H522, Non-small cell lung cancer, five-dose) of the same molecule?
A: 4.9 µM

Q: What about the inhibition at 10 µM (SF-268; SF-268 (CNS cancer), 10 µM, read-out: GI%) of the same molecule?
A: > 100%

Q: What about the GI50 (SF-268; SF-268, CNS cancer, five-dose) of the same molecule?
A: 4.4 µM

Q: What about the inhibition at 10 µM (MDA-MB-468; MDA-MB-468 (Breast cancer), 10 µM, read-out: GI%) of the same molecule?
A: > 100%

Q: What about the GI50 (MDA-MB-468; MDA-MB-468, Breast cancer, five-dose) of the same molecule?
A: 3.27 µM

Q: And the inhibition at 10 µM (786–0; 786–0 (Renal cancer), 10 µM, read-out: GI%)?
A: > 100%

Q: And the GI50 (786–0; 786–0, Renal cancer, five-dose)?
A: 4.88 µM

Q: And the inhibition at 10 µM (MDA-MB-231/ATCC; MDA-MB-231/ATCC (Breast cancer), 10 µM, read-out: GI%)?
A: > 100%

Q: And the GI50 (MDA-MB-231/ATCC; MDA-MB-231/ATCC, Breast cancer, five-dose)?
A: 3.39 µM

Q: And the inhibition at 10 µM (UACC-257; UACC-257 (Melanoma), 10 µM, read-out: GI%)?
A: > 100%

Q: What about the GI50 (UACC-257; UACC-257, Melanoma, five-dose) of the same molecule?
A: 4.67 µM

Q: And the inhibition at 10 µM (HT29; HT29 (Colon cancer), 10 µM, read-out: GI%)?
A: > 100%

Q: And the GI50 (HT29; HT29, Colon cancer, five-dose)?
A: 2.98 µM

Q: And the inhibition at 10 µM (NCI-H226; NCI-H226 (Non-small cell lung cancer), 10 µM, read-out: GI%)?
A: > 100%

Q: And the GI50 (NCI-H226; NCI-H226, Non-small cell lung cancer, five-dose)?
A: 1.31 µM

Q: What about the inhibition at 10 µM (KM12; KM12 (Colon cancer), 10 µM, read-out: GI%) of the same molecule?
A: > 100%

Q: And the GI50 (KM12; KM12, Colon cancer, five-dose)?
A: 4.5 µM

Q: And the inhibition at 10 µM (COLO 205; COLO 205 (Colon cancer), 10 µM, read-out: GI%)?
A: > 100%

Q: What about the GI50 (COLO 205; COLO 205, Colon cancer, five-dose) of the same molecule?
A: 2.84 µM

Q: What about the inhibition at 10 µM (SK-MEL-2; SK-MEL-2 (Melanoma), 10 µM, read-out: GI%) of the same molecule?
A: > 100%

Q: What about the GI50 (SK-MEL-2; SK-MEL-2, Melanoma, five-dose) of the same molecule?
A: 11 µM

Q: And the GI50 (SN12C)?
A: 3.22 µM

Q: What about the inhibition at 10 µM (RPMI-8226; RPMI-8226 (Leukemia), 10 µM, read-out: GI%) of the same molecule?
A: > 100%

Q: What about the GI50 (RPMI-8226; RPMI-8226, Leukemia, five-dose) of the same molecule?
A: 3.21 µM

Q: And the inhibition at 10 µM (TK-10; TK-10 (Renal cancer), 10 µM, read-out: GI%)?
A: 62.6%

Q: And the GI50 (TK-10; TK-10, Renal cancer, five-dose)?
A: 28.8 µM

Q: And the inhibition at 10 µM (NCI/ADR-RES)?
A: 24.3%

Q: And the inhibition at 10 µM (SK-MEL-5; SK-MEL-5 (Melanoma), 10 µM, read-out: GI%)?
A: > 100%

Q: What about the GI50 (SK-MEL-5; SK-MEL-5, Melanoma, five-dose) of the same molecule?
A: 2.83 µM

Q: What about the inhibition at 10 µM (SR; SR (Leukemia), 10 µM, read-out: GI%) of the same molecule?
A: > 100%

Q: And the GI50 (SR; SR, Leukemia, five-dose)?
A: 3.76 µM

Q: And the inhibition at 10 µM (HOP-62; HOP-62 (Non-small cell lung cancer), 10 µM, read-out: GI%)?
A: > 100%

Q: And the GI50 (HOP-62; HOP-62, Non-small cell lung cancer, five-dose)?
A: 4.68 µM

Q: What about the inhibition at 10 µM (K-562; K-562 (Leukemia), 10 µM, read-out: GI%) of the same molecule?
A: > 100%

Q: And the GI50 (K-562; K-562, Leukemia, five-dose)?
A: 1.96 µM

Q: What about the inhibition at 10 µM (IGROV1; IGROV1 (Ovarian cancer), 10 µM, read-out: GI%) of the same molecule?
A: 92.4%

Q: And the GI50 (IGROV1; IGROV1, Ovarian cancer, five-dose)?
A: 11 µM

Q: And the inhibition at 10 µM (ACHN; ACHN (Renal cancer), 10 µM, read-out: GI%)?
A: 69.9%

Q: What about the GI50 (ACHN; ACHN, Renal cancer, five-dose) of the same molecule?
A: 7.93 µM

Q: What about the inhibition at 10 µM (SNB-75; SNB-75 (CNS cancer), 10 µM, read-out: GI%) of the same molecule?
A: > 100%

Q: And the GI50 (SNB-75; SNB-75, CNS cancer, five-dose)?
A: 1.28 µM

Q: And the inhibition at 10 µM (SNB-19; SNB-19 (CNS cancer), 10 µM, read-out: GI%)?
A: > 100%

Q: What about the GI50 (SNB-19; SNB-19, CNS cancer, five-dose) of the same molecule?
A: 3.42 µM
